# Test results: patent publication US20250295619A1, “Use of Salvianolic Acid E in the Preparation of Drugs Targeting Senescent Cells, Inhibiting Tumors or Extending Lifespan” (Shanghai Institute of Nutrition and Health, Chinese Academy …, priority 2024, published 2025)
# Entries after “also recorded” stand apart in the source; their conditions may differ.
# Experiments:
# [1] = tested on: PSC27; test: SA-β-Gal staining of PSC27 cells (bleomycin-induced senescence, increasing SAE concentration); format: cell-based, human
# Experimental: The P value of positive proportion of cells in these experimental groups for SAE at the concentrations of 100 μM, 200 μM, 400 μM, 800 μM, 1600 μM, 2000 μM and 3000 μM are statistically significant compared with the data at 0 μM.
# (§1) To cause cell damage, 50 μg/mL bleomycin (bleomycin, BLEO) was added to the culture medium when PSC27 cells grew to 80% (abbreviated as PSC27-CTRL). After 12 hours of drug treatment, the cells were simply washed 3 times with PBS, left in the culture medium for 7-10 days, and then the subsequent experiments were performed.
# Senescence-associated B-galactosidase (SA-β-Gal) staining was performed following a previously reported procedure (Debacq-Chainiaux, et. al., 2009). Briefly, cells in culture dishes were washed with PBS and fixed at room temperature. Cells were fixed in 2% formaldehyde and 0.2% glutaraldehyde for 3 minutes. SA-β-Gal was used for staining with freshly prepared staining solution overnight at 37° C. Images were taken on the next day and the percentage of positive cells per unit area was calculated.
# [2] = tested on: SASP; test: qRT-PCR of typical SASP molecules in BLEO-induced senescent PSC27 cells at different SAE concentrations; format: cell-based, human
# Experimental: All data are normalized results compared to the CTRL group. *P<0.05, **P<0.01, ***P<0.001.
# as §1
# Total RNA of cells in the growth phase or stasis phase was extracted with Trizol reagent. 1 mL Trizol was added to each T25 culture flask. The cell layer was scraped off with a cell scraper, transferred into a centrifuge tube and mixed well until not viscous. […]
# Samples were loaded according to the above standard, and the reaction conditions were: 95° C. pre-denaturation for 15 seconds, then 95° C. for 5 seconds, 60° C. for 31 seconds, 40 cycles; melting curve conditions were 95° C. for 15 seconds, 60° C. for 30 seconds, 95° C. for 15 seconds. […] After the reaction was completed, the amplification of each gene was checked by software analysis, the corresponding threshold cycle number was derived, and the relative expression of each gene was calculated using the 2-ΔΔCt method. The peak and waveform of the melting curve was analyzed to determine whether the obtained amplification product was a specific single target fragment.
# [3] = tested on: PSC27; test: CCK8 survival of proliferating and senescent PSC27 cells; format: cell-based, human
# Experimental: as §1
# Pharmacodynamic analysis was conducted on an organic chemical drug library (TOPSCIENCE) with a total of 1470 small molecule compounds, mostly derived from medicinal plants and had anti-senescence potential. Each product was diluted to a 96-well plate according to a certain concentration gradient, and the density was 5000 cells per well. The medium uses DMEM, and the working concentration of natural product (or compound) is generally controlled at […] to 1 mM. After 3-7 days of drug treatment, cell proliferation was measured with CCK-8 Cell Counting Kit (based on WST-8 principle, Vazyme), and cell apoptosis activity was determined with Caspase 3/7 Activity Kit (Promega).
# [4] = tested on: PSC27; test: Population doubling (PD) test of PSC27; format: cell-based, human
# Experimental: The cells were damaged by BLEO at passage 10 (p10), and then SAE was added to the medium at day 8. The effect SAE on cell proliferation potential is determined by comparative analysis of the population doubling (PD) of CTRL group, BLEO group, SAE group and BLEO/SAE group. ^, P>0.05; ***P<0.001.
# [5] = tested on: PSC27; test: Caspase 3/7 apoptosis detection in senescent PSC27 cells (IncuCyte); format: cell-based, human; settings: 200 μM SAE
# Experimental: PSC27 cells gradually entered the senescent stage after being treated with BLEO for 12 hours under culture conditions. 200 μM SAE was added to the medium of senescent cells starting from day 7, NucLight Rapid Red reagent was used to label the cells and caspase 3/7 reagent (IncuCyte) was used for apoptosis detection. Caspase 3/7 activity was detected every 4 hours (n=3).
# Statistical differences are obtained by two-way ANOVA (Turkey'test).
# PSC27 cells were plated in a 96-well dish, and the cells were induced to senescence under 50 μg/ml of BLEO treatment. SAE and ABT263 were added at concentrations of 200 μM and 1.25 μM, respectively. Cell culture medium was supplemented with Incucyte Nuclight fast Red Reagent (Essen Bioscience) and Incucyte C-3/7 Apoptosis Reagent (Essen Bioscience). Representative field of view was selected to take pictures.
# [6] = tested on: senescent cells in tumor tissue; test: SA-β-Gal staining of tumor tissues of PC3/PSC27 tumor-bearing mice; format: in vivo, mouse; settings: SAE with MIT
# Experimental: Representative pictures after SA-β-Gal staining. Scale bar, 100 μm.
# (§2) In a preclinical treatment trial, subcutaneously transplanted mice were fed with a standard experimental diet, after 2 weeks chemotherapy drugs mitoxantrone (MIT, dose: 0.2 mg/kg) and/or SAE (500 μl, dose: 10 mg/kg) via intraperitoneal administration. The time points were: the former was administrated on the first day of the 3rd, 5th and 7th weeks, and the latter was administrated on the first day of the 5th and 7th weeks. A total of 3 cycles of MIT administration were carried out throughout the course of treatment, and each cycle lasted for 2 weeks. After the course of treatment, mouse tumors were harvested for volume measurement and histological analysis. Each mouse cumulatively received 0.6 mg/kg body weight of MIT and 30 mg/kg body weight of SAE. In order to cause systemic expression of SASP factors induced by chemotherapy, MIT was administered to mice through intravenous infusion according to the above steps and sequence, but the dose was reduced to 0.1 mg/kg body weight/each time (the cumulative dose of MIT received in the whole course of treatment was 0.3 mg/kg body weight) to reduce drug-related toxicity. The chemotherapy experiment ended at the end of the 8th week, and the mice were dissected immediately after sacrifice, and the xenograft tumors were collected and used for pathological system analysis.
# [7] = tested on: SASP factors; test: LCM and qRT-PCR of SASP factors in mouse lesions; format: in vivo; settings: MIT/SAE vs MIT
# Experimental: The stromal cells and cancer cells were specifically separated by LCM technology, total RNA was prepared and used for SASP expression detection. ^, P>0.05; *, P<0.05; **, P<0.01.
# as §2, with “The chemotherapy experiment ended at the end of the 8th week, and the mice were dissected immediately after sacrifice, and the xenograft tumors were collected and used for pathological system analysis.” left out
structure (smiles),measurement,setting,value
"O=C(/C=C/c1ccc(O)c(O)c1/C(=C\c1ccc(O)c(O)c1)C(=O)O[C@H](Cc1ccc(O)c(O)c1)C(=O)O)O[C@H](Cc1ccc(O)c(O)c1)C(=O)O [SAE, salvianolic acid E]",SAE concentration at which senescent cells begin to be eliminated,[1]; SA-β-Gal staining,200 µM
same,concentration at which the killing effect on senescent cells reaches a threshold,[1]; SA-β-Gal staining,2000 µM
same,killing effect on senescent cells,[1]; SAE increased to 3000 μM,not further enhanced
same,inhibition of SASP development at lower or higher concentrations,[2]; compared with 50 μM,less effective
same,working concentration that inhibited SASP development with the greatest efficiency,"[2]; concentration gradient, senescent PSC27",50 µM
same,percentage of surviving senescent cells,[3]; SAE 2000 μM,approximately 10%
same,survival of proliferating cells,[3]; SAE 3000 μM,not significantly reduced
same,concentration from which significant death of senescent cells is induced,[3]; vs control proliferating cells,200 µM
same,PD in proliferating cells,[4]; SAE alone,does not affect PD
same,population doubling (PD) ability of stromal cells after genotoxic treatment combined with SAE,[4]; combination with genotoxic drug (BLEO) vs genotoxic drug alone,significant increase; also recorded: significantly increased
same,caspase-3/7 activity: apoptosis of senescent cells,[5],caused apoptosis of senescent cells
same,time after addition of SAE from which senescent and control group differ statistically,[5]; caspase 3/7 activity,≥ 16 h
same,senescent cells in the lesions of animals treated with chemotherapeutic drugs after SAE administration,[6],essentially depleted most senescent cells
same,change of SASP factor expression when SAE was administered,[7],largely reversed
